Laboratory results reported in ChEMBL document CHEMBL4190255, “Novel celastrol derivatives with improved selectivity and enhanced antitumour activity: Design, synthesis and biological evaluation” (Eur J Med Chem, 2017).
pIC50: −log10 of the molar value. The source made the active and inactive calls. No cut-off for these calls is given here.

Key:
[1] = system: MIA PaCa-2; experiment: Antiproliferative activity against human MIAPaCa2 cells after 72 hrs by MTT assay; format: functional, cell-based; settings: MIA PaCa-2, 72 h
[2] = system: A549; experiment: Antiproliferative activity against human A549 cells after 72 hrs by MTT assay; format: functional, cell-based; settings: A549, 72 h
[3] = Selectivity index, ratio of IC50 for human BJ cells to IC50 for human SKOV3 cells; format: toxicity; settings: BJ cells versus SKOV3 cells, read-out: Ratio IC50
[4] = Selectivity index, ratio of IC50 for human BJ cells to IC50 for human MIAPaCa2 cells; format: toxicity; settings: BJ cells versus MIAPaCa2 cells, read-out: Ratio IC50
[5] = Selectivity index, ratio of IC50 for human BJ cells to IC50 for human A549 cells; format: toxicity; settings: BJ cells versus A549 cells, read-out: Ratio IC50
[6] = system: SK-BR-3; experiment: Antiproliferative activity against human SKBR3 cells after 72 hrs by MTT assay; format: functional, cell-based; settings: SK-BR-3, 72 h
[7] = system: SK-OV-3; experiment: Induction of apoptosis in human SKOV3 assessed as increase in cleaved PARP levels at IC50 concentration after 72 hrs by Western blot analysis; format: functional, cell-based
[8] = system: SK-OV-3; experiment: Induction of apoptosis in human SKOV3 cells assessed as early apoptotic cells at IC50 concentration after 72 hrs by Annexin V-FITC/propidium iodide double staining based flow cytometry (reference value: 4.7%); format: functional
[9] = system: SK-OV-3; experiment: Effect on total mTOR levels in human SKOV3 cells at IC50 concentration after 72 hrs by Western blot analysis; format: ADME, cell-based; settings: sk-ov-3, 72 h
[10] = system: SK-OV-3; experiment: Potentiation of cisplatin-induced cytotoxicity in human SKOV3 cells assessed as combination index by measuring reduction in cell viability at 1.2 uM after 72 hrs by MTT assay; format: functional
[11] = system: SK-OV-3; experiment: Potentiation of cisplatin-induced cytotoxicity in human SKOV3 cells assessed as combination index by measuring reduction in cell viability at 0.3 uM after 72 hrs by MTT assay; format: functional
[12] = target: T1, Heat shock protein HSP90 (Homo sapiens) (UniProt P07900+P08238); experiment: Inhibition of HSP90 in human SKOV3 cells assessed as decrease in phosphorylated mTOR levels at IC50 concentration after 72 hrs by Western blot analysis; format: cell-based
[13] = system: SK-OV-3; experiment: Induction of apoptosis in human SKOV3 assessed as effect on bax levels at IC50 concentration after 72 hrs by Western blot analysis; format: functional, cell-based
[14] = system: SK-OV-3; experiment: Induction of apoptosis in human SKOV3 cells assessed as reduction in cell density at IC50 concentration after 48 hrs by Hoechst 33342 staining-based fluorescence microscopy; format: functional
[15] = system: SK-OV-3; experiment: Induction of apoptosis in human SKOV3 cells assessed as cell shrinkage at IC50 concentration after 48 hrs by Hoechst 33342 staining-based fluorescence microscopy; format: functional
[16] = system: SK-OV-3; experiment: Induction of apoptosis in human SKOV3 assessed as decrease in procaspase-3 levels at IC50 concentration after 72 hrs by Western blot analysis; format: functional, cell-based
[17] = system: SK-OV-3; experiment: Induction of apoptosis in human SKOV3 cells at IC50 concentration after 24 hrs by Annexin V-FITC/propidium iodide double staining based flow cytometry; format: functional, cell-based
[18] = system: SK-OV-3; experiment: Induction of apoptosis in human SKOV3 assessed as increase in cleaved caspase-8 levels at IC50 concentration after 72 hrs by Western blot analysis; format: functional, cell-based
[19] = system: SK-OV-3; experiment: Induction of apoptosis in human SKOV3 cells assessed as formation of apoptotic bodies at IC50 concentration after 48 hrs by Hoechst 33342 staining-based fluorescence microscopy; format: functional, cell-based
[20] = system: SK-OV-3; experiment: Potentiation of cisplatin-induced cytotoxicity in human SKOV3 cells assessed as combination index by measuring reduction in cell viability at 0.15 uM after 72 hrs by MTT assay; format: functional
[21] = system: SK-OV-3; experiment: Induction of apoptosis in human SKOV3 assessed as effect on bcl2 levels at IC50 concentration after 72 hrs by Western blot analysis; format: functional, cell-based
[22] = system: SK-OV-3; experiment: Induction of apoptosis in human SKOV3 cells assessed as chromatin condensation at IC50 concentration after 48 hrs by Hoechst 33342 staining-based fluorescence microscopy; format: functional, cell-based
[23] = system: SK-OV-3; experiment: Antiproliferative activity against human SKOV3 cells after 72 hrs by MTT assay; format: functional, cell-based; settings: SK-OV-3, 72 h
[24] = system: SK-OV-3; experiment: Induction of apoptosis in human SKOV3 assessed as effect on caspase-9 levels at IC50 concentration after 72 hrs by Western blot analysis; format: functional, cell-based
[25] = system: SK-OV-3; experiment: Induction of apoptosis in human SKOV3 cells assessed as early apoptotic cells at IC50 concentration after 48 hrs by Annexin V-FITC/propidium iodide double staining based flow cytometry (reference value: 4.5%); format: functional
[26] = system: BJ; experiment: Cytotoxicity against human BJ cells assessed as reduction in cell viability after 72 hrs by MTT assay; format: cell-based
[27] = target: T1, Heat shock protein HSP90 (Homo sapiens); experiment: Inhibition of HSP90 in human SKOV3 cells assessed as decrease in phosphorylated Akt levels at IC50 concentration after 72 hrs by Western blot analysis; format: cell-based
[28] = system: SK-OV-3; experiment: Potentiation of cisplatin-induced cytotoxicity in human SKOV3 cells assessed as combination index by measuring reduction in cell viability at 4.8 uM after 72 hrs by MTT assay; format: functional
[29] = system: SK-OV-3; experiment: Induction of apoptosis in human SKOV3 assessed as effect on bid levels at IC50 concentration after 72 hrs by Western blot analysis; format: functional, cell-based
[30] = system: MDA-MB-231; experiment: Antiproliferative activity against human MDA-MB-231 cells after 72 hrs by MTT assay; format: functional, cell-based; settings: MDA-MB-231, 72 h
[31] = target: T1, Heat shock protein HSP90 (Homo sapiens); experiment: Inhibition of HSP90 protein levels in human SKOV3 cells at IC50 concentration after 72 hrs by Western blot analysis; format: cell-based
[32] = system: SK-OV-3; experiment: Induction of apoptosis in human SKOV3 assessed as effect on t-bid levels at IC50 concentration after 72 hrs by Western blot analysis; format: functional, cell-based
[33] = system: SK-OV-3; experiment: Effect on total Akt levels in human SKOV3 cells at IC50 concentration after 72 hrs by Western blot analysis; format: ADME, cell-based; settings: sk-ov-3, 72 h
[34] = system: SK-OV-3; experiment: Cell cycle arrest in human SKOV3 cells assessed as accumulation at G0/G1 phase at IC50 concentration after 24 to 72 hrs by propidium iodide-based flow cytometry; format: functional
[35] = system: SK-OV-3; experiment: Cell cycle arrest in human SKOV3 cells assessed as accumulation at G2/M phase at IC50 concentration after 24 to 72 hrs by propidium iodide-based flow cytometry; format: functional
[36] = system: SK-OV-3; experiment: Induction of apoptosis in human SKOV3 assessed as decrease in procaspase-8 levels at IC50 concentration after 72 hrs by Western blot analysis; format: functional, cell-based
[37] = system: SK-OV-3; experiment: Potentiation of cisplatin-induced cytotoxicity in human SKOV3 cells assessed as combination index by measuring reduction in cell viability at 0.6 uM after 72 hrs by MTT assay; format: functional
[38] = system: A549; experiment: Effect on wild-type p53 expression in human A549 cells at IC50 concentration after 72 hrs by Western blot analysis; format: ADME, cell-based; settings: a549, 72 h
[39] = system: SK-OV-3; experiment: Potentiation of cisplatin-induced cytotoxicity in human SKOV3 cells assessed as combination index by measuring reduction in cell viability at 2.4 uM after 72 hrs by MTT assay; format: functional
[40] = system: SK-OV-3; experiment: Induction of apoptosis in human SKOV3 cells at IC50 concentration by Annexin V-FITC/propidium iodide double staining based flow cytometry; format: functional, cell-based; settings: TDE = time-dependent effect
[41] = system: SK-OV-3; experiment: Cell cycle arrest in human SKOV3 cells assessed as accumulation at S phase at IC50 concentration after 24 to 72 hrs by propidium iodide-based flow cytometry; format: functional
[42] = system: SK-OV-3; experiment: Induction of apoptosis in human SKOV3 cells assessed as reduction in mutant p53 levels at IC50 concentration after 72 hrs by Western blot analysis; format: functional, cell-based

CCCNC(=O)N[C@]1(C)CC[C@]2(C)CC[C@]3(C)C4=CC=C5C(=CC(=O)C(O)=C5C)[C@]4(C)CC[C@@]3(C)[C@@H]2C1
pIC50 [1]: 6.18 | pIC50 [2]: 5.90

CC1=C(O)C(=O)C=C2C1=CC=C1[C@@]2(C)CC[C@@]2(C)[C@@H]3C[C@](C)(NC(=O)NCc4ccc(C)cc4)CC[C@]3(C)CC[C@]12C
pIC50 [1]: 6.35 | pIC50 [2]: 5.61

CCNC(=O)N[C@]1(C)CC[C@]2(C)CC[C@]3(C)C4=CC=C5C(=CC(=O)C(O)=C5C)[C@]4(C)CC[C@@]3(C)[C@@H]2C1
pIC50 [1]: 6.26 | pIC50 [2]: 5.85

CC1=C(O)C(=O)C=C2C1=CC=C1[C@@]2(C)CC[C@@]2(C)[C@@H]3C[C@](C)(NC(=O)Nc4ccccc4N)CC[C@]3(C)CC[C@]12C
pIC50 [1]: 6.25 | pIC50 [2]: 5.52

CC1=C(O)C(=O)C=C2C1=CC=C1[C@@]2(C)CC[C@@]2(C)[C@@H]3C[C@](C)(C(=O)O)CC[C@]3(C)CC[C@]12C [CELASTROL]
selectivity ratio [3]: 2.34 | selectivity ratio [4]: 5.97 | selectivity ratio [5]: 1.75 | pIC50 [6]: 6.14

CC1=C(O)C(=O)C=C2C1=CC=C1[C@@]2(C)CC[C@@]2(C)[C@@H]3C[C@](C)(NC(=O)NCCc4ccccc4)CC[C@]3(C)CC[C@]12C
pIC50 [1]: 6.39 | pIC50 [2]: 5.78

CC1=C(O)C(=O)C=C2C1=CC=C1[C@@]2(C)CC[C@@]2(C)[C@@H]3C[C@](C)(NC(=O)Nc4ccccc4)CC[C@]3(C)CC[C@]12C
pIC50 [1]: 6.40 | pIC50 [2]: 5.64

CC1=C(O)C(=O)C=C2C1=CC=C1[C@@]2(C)CC[C@@]2(C)[C@@H]3C[C@](C)(NC(=O)NO)CC[C@]3(C)CC[C@]12C
pIC50 [1]: 6.07 | pIC50 [2]: 5.46

Cc1c(O)c(O)cc2c1C(=O)C=C1[C@@]2(C)CC[C@@]2(C)[C@@H]3C[C@](C)(C(=O)O)CC[C@]3(C)CC[C@]12C
pIC50 [1]: < 5.30 | pIC50 [2]: < 4.82

CC1=C(O)C(=O)C=C2C1=CC=C1[C@@]2(C)CC[C@@]2(C)[C@@H]3C[C@](C)(NC(=O)NCCc4cccc(Cl)c4)CC[C@]3(C)CC[C@]12C
Activity [7]: Active | Activity [8]: 31.8% | Activity [9]: Non-Toxic | CI [10]: 0.6855 | CI [11]: 1.374 | inhibition [12]: Active | Activity [13]: inactive | Activity [14]: Active | Activity [15]: Active | Activity [16]: Active | Activity [17]: inactive | Activity [18]: Active | pIC50 [1]: 6.46 | Activity [19]: Active | pIC50 [2]: 5.90 | CI [20]: 1.047 | Activity [21]: inactive | Activity [22]: Active | selectivity ratio [3]: 5.81 | pIC50 [23]: 6.25 | Activity [24]: inactive | Activity [25]: 15% | pIC50 [26]: 5.48 | inhibition [27]: Active | CI [28]: 0.7102 | Activity [29]: inactive | selectivity ratio [4]: 9.31 | pIC50 [30]: 5.94 | inhibition [31]: Active | Activity [32]: inactive | Activity [33]: Non-Toxic | Activity [34]: inactive | Activity [35]: inactive | Activity [36]: Active | CI [37]: 1.44 | Activity [38]: Non-Toxic | CI [39]: 0.575 | selectivity ratio [5]: 2.59 | pIC50 [6]: 6.11 | Activity [40]: Tde | Activity [41]: inactive | Activity [42]: Active
